The NIST ThermoML archive (doi:10.1016/j.jct.2019.07.011)

Assay: xn = mol fraction of the nth substance listed
Details: Gas, Frequency=0.002 MHz, Spherical resonator

[He] [helium] + C
Details	speed of sound [m/s]
273.16 K, 491.07 kPa, x2 = 0.8999	449.8
273.16 K, 495.33 kPa, x2 = 0.95	438.87
273.16 K, 993.4 kPa, x2 = 0.8999	448.5
273.16 K, 1010.2 kPa, x2 = 0.95	437.11
273.16 K, 1705.3 kPa, x2 = 0.8999	446.82
273.16 K, 2010.6 kPa, x2 = 0.95	433.9
273.16 K, 2484.9 kPa, x2 = 0.8999	445.25
273.16 K, 2988.8 kPa, x2 = 0.95	431.21
273.16 K, 3490.4 kPa, x2 = 0.8999	443.67
273.16 K, 4423.3 kPa, x2 = 0.95	428.28
273.16 K, 4498.4 kPa, x2 = 0.8999	442.69
273.16 K, 5505.7 kPa, x2 = 0.8999	442.38
273.16 K, 5984.1 kPa, x2 = 0.95	426.79
273.16 K, 6475.9 kPa, x2 = 0.95	426.75
273.16 K, 6493 kPa, x2 = 0.8999	442.8
273.16 K, 6972.4 kPa, x2 = 0.95	426.96
273.16 K, 7508.1 kPa, x2 = 0.8999	444.07
273.16 K, 7524.3 kPa, x2 = 0.95	427.48
273.16 K, 8481.6 kPa, x2 = 0.8999	446.2
273.16 K, 8589.5 kPa, x2 = 0.95	429.44
273.16 K, 9521.1 kPa, x2 = 0.8999	449.34
273.16 K, 9523.8 kPa, x2 = 0.95	432.26
273.16 K, 10522 kPa, x2 = 0.8999	453.42
273.16 K, 10523 kPa, x2 = 0.95	436.5
273.16 K, 11506 kPa, x2 = 0.95	441.94
273.16 K, 11530 kPa, x2 = 0.8999	458.54
273.16 K, 12532 kPa, x2 = 0.95	449.01
273.16 K, 12638 kPa, x2 = 0.8999	465.33
273.16 K, 13317 kPa, x2 = 0.95	455.32
273.16 K, 13633 kPa, x2 = 0.8999	472.45
273.16 K, 14040 kPa, x2 = 0.95	461.81
273.16 K, 14537 kPa, x2 = 0.8999	479.7
273.16 K, 14722 kPa, x2 = 0.95	468.48
273.16 K, 15299 kPa, x2 = 0.95	474.53
273.16 K, 15351 kPa, x2 = 0.8999	486.78
273.16 K, 15853 kPa, x2 = 0.95	480.65
273.16 K, 16041 kPa, x2 = 0.8999	493.25
273.16 K, 16516 kPa, x2 = 0.95	488.34
273.16 K, 16537 kPa, x2 = 0.8999	498.12
273.16 K, 17032 kPa, x2 = 0.95	494.58
273.16 K, 17048 kPa, x2 = 0.8999	503.31
273.16 K, 17533 kPa, x2 = 0.95	500.83
273.16 K, 17548 kPa, x2 = 0.8999	508.55
273.16 K, 18009 kPa, x2 = 0.95	506.92
273.16 K, 18059 kPa, x2 = 0.8999	514.05
273.16 K, 18537 kPa, x2 = 0.8999	519.32
273.16 K, 18552 kPa, x2 = 0.95	514.01
273.16 K, 19088 kPa, x2 = 0.95	521.16
273.16 K, 19117 kPa, x2 = 0.8999	525.88
273.16 K, 19871 kPa, x2 = 0.95	531.76
300 K, 482.33 kPa, x2 = 0.8999	469.85
300 K, 483.64 kPa, x2 = 0.95	458.75
300 K, 985.69 kPa, x2 = 0.95	457.69
300 K, 1001 kPa, x2 = 0.8999	469.18
300 K, 1985.5 kPa, x2 = 0.8999	468.06
300 K, 1996 kPa, x2 = 0.95	455.8
300 K, 2984.6 kPa, x2 = 0.8999	467.34
300 K, 3212.7 kPa, x2 = 0.95	454.1
300 K, 4475.2 kPa, x2 = 0.95	453.09
300 K, 4487.3 kPa, x2 = 0.8999	467.1
300 K, 5490.1 kPa, x2 = 0.8999	467.58
300 K, 5513.3 kPa, x2 = 0.95	452.95
300 K, 6460.8 kPa, x2 = 0.95	453.38
300 K, 6494.8 kPa, x2 = 0.8999	468.59
300 K, 7011.9 kPa, x2 = 0.95	453.9
300 K, 7501.4 kPa, x2 = 0.8999	470.2
300 K, 7543 kPa, x2 = 0.95	454.6
300 K, 8430.8 kPa, x2 = 0.95	456.23
300 K, 9026.4 kPa, x2 = 0.8999	473.76
300 K, 9344.2 kPa, x2 = 0.95	458.51
300 K, 10504 kPa, x2 = 0.8999	478.72
300 K, 10534 kPa, x2 = 0.95	462.72
300 K, 11500 kPa, x2 = 0.95	466.77
300 K, 11505 kPa, x2 = 0.8999	482.86
300 K, 12492 kPa, x2 = 0.8999	487.56
300 K, 12507 kPa, x2 = 0.95	471.79
300 K, 13305 kPa, x2 = 0.95	476.35
300 K, 13505 kPa, x2 = 0.8999	493.08
300 K, 13998 kPa, x2 = 0.95	480.72
300 K, 14495 kPa, x2 = 0.8999	499.05
300 K, 14699 kPa, x2 = 0.95	485.51
300 K, 15302 kPa, x2 = 0.95	489.92
300 K, 15515 kPa, x2 = 0.8999	505.8
300 K, 15902 kPa, x2 = 0.95	494.56
300 K, 16490 kPa, x2 = 0.8999	512.81
300 K, 16491 kPa, x2 = 0.95	499.36
300 K, 16994 kPa, x2 = 0.8999	516.63
300 K, 17005 kPa, x2 = 0.95	503.74
300 K, 17511 kPa, x2 = 0.8999	520.69
300 K, 17525 kPa, x2 = 0.95	508.33
300 K, 18012 kPa, x2 = 0.8999	524.75
300 K, 18013 kPa, x2 = 0.95	512.78
300 K, 18515 kPa, x2 = 0.95	517.49
300 K, 18523 kPa, x2 = 0.8999	529
300 K, 19011 kPa, x2 = 0.95	522.29
300 K, 19043 kPa, x2 = 0.8999	533.45
300 K, 19447 kPa, x2 = 0.95	526.6
300 K, 19955 kPa, x2 = 0.8999	541.5
325 K, 473.9 kPa, x2 = 0.8999	487
325 K, 479.57 kPa, x2 = 0.95	476.04
325 K, 976.85 kPa, x2 = 0.8999	486.84
325 K, 979.32 kPa, x2 = 0.95	475.45
325 K, 1477.5 kPa, x2 = 0.8999	486.66
325 K, 1677.4 kPa, x2 = 0.95	474.76
325 K, 2455.5 kPa, x2 = 0.95	474.19
325 K, 2481.6 kPa, x2 = 0.8999	486.49
325 K, 3481.4 kPa, x2 = 0.95	473.83
325 K, 3486.4 kPa, x2 = 0.8999	486.7
325 K, 4485.5 kPa, x2 = 0.8999	487.28
325 K, 4486.1 kPa, x2 = 0.95	473.85
325 K, 5487.2 kPa, x2 = 0.8999	488.28
